From US5229265A, “Process for analyzing clastogenic agents” (Litron Laboratories, priority 1990, dated 1993) come the findings set out here.

Data set [1] has as its system micronucleated cells in blood. The experiment in a line: Single parameter flow cytometric micronucleus analysis, cyclophosphamide, effect of analysis window size. The format is in vivo, mouse. The procedure: In order to show this single parameter embodiment of this invention, the instrument was aligned with the malaria parasite, P. berghei, data was acquired, and analysis windows were defined relative to the malaria peak. […] A prominent peak, characteristic of cells single parasites, is evident. The primary analysis window was used to bracket the main peak and extends to the third log has mark. […] Blood samples (t=0 and t=96 hr) from a mouse that was dosed with cyclophosphamide (at t=0 and t=48 hrs) were stained with […] and the events were also acquired in the single parameter mode. FIGS. 9A and 9B show the blue fluorescence histograms that were obtained for the t=0 and the t=96 hr samples, respectively. The analysis windows shown in FIG. 9 are those that were initially set up with the malaria infected blood sample shown in FIG. 8. The number of events present in the primary analysis windows are shown. […]
Practioners in the art are presently unaware of the need for internal quality control on the flow cytometer signals during the analysis of each sample. […] As indicated earlier, neither RBC, PCEs, MN-cells nor the nucleated cell populations provide proper signals for evaluating instrument alignment since they are either nor present in sufficient quantities, the populations are too dispersed, or cell staining variations would be introduced. […]

In data set [2] the test system is micronucleated cells in blood. The experiment in a line: Flow cytometric micronucleus assay, dual parameter data, cyclophosphamide, per 10^6 cells. The format is in vivo, mouse. As to conditions: for Mns (T = 96 hr): Hoechst 33258; for Δ (T96 - T0): per mouse difference and mean of differences. The text has this:
The fixation procedure can affect the permeability of a cell, cell morphology and the amount of undesirable autofluorescence that is associated with a cell preparation. Fixing procedures can cause changes in cell structure (that are reflected in the light scatter patterns) as well as changes in the distribution of the dye molecules within the cells (resulting in altered fluorescence emission patterns). Practioners of the art are unaware that fixing the cells at ultralow temperatures circumvents these fixation problems and provides cells that are suitable for subsequent staining and FCM analysis. Initially, the cells are centrifuged in order to separate them from serum components which could aggregate when added to cold fixative. To fix cells, a fresh blood sample (25 μl) containing an anticogulant is suspended in a solution containing 1% BSA and 10% dimethylsulfoxide (DMSO) in PBS (2 ml). The cells are centrifuged at 500×g for five minutes at room temperature. The supernatant is discarded and the pellet is resuspended in the small amount of residual supernatant that remains. This cell suspension is cooled to 0° C., the cells are diluted further with cold (-70° C.) absolute methanol (2 ml) and it is incubated at -70° C. for five minutes. The cell suspension is then immediately diluted with 1% BSA in PBS (10 ml) and is centrifuged at 500×g for 5 minutes. The low temperature treatment yields fixed cells with good morphology as viewed with either inverted phase contrast microscopy or fluorescent microscopy. Autofluorescence of these cells is very low, in contrast to glutaraldehyde or paraformaldehyde fixation procedures that are widely used in the art. Other volumes of blood and/or BSA in PBS are also compatible with this cell fixing process. The volume of methanol should be in the range of 0.5 to 20 ml. The temperature of the methanol should be in the range -30° C. to -90° C., and the fixation time in the range of 1 minute to 60 minutes for good results. When cells are fixed in alcohol at higher temperatures (e.g. in the range of +37° C. to - 20° C.), they tend to aggregate and quickly settle to the bottom of the centrifuge tube. […] Other ultra cold solvents can be used in place of methanol, such as acetone, methanol/acetone solutions, etc.. Two fixed cell samples can be prepared for each mouse, an initial (time=0) sample and a final time=96 hr sample. Cells fixed in this way can be stored at 0° C. for weeks with no significant deterioration and are ready for staining and MN analysis.
It is known to practioners in the art that a variety of fluorescent dyes can be used to stain the DNA and RNA of cells. Even so, the specific stain, combinations or staining conditions that are optimum for the FCM based micronucleus assay are unresolved. […] These dye can be used individually or together to stain different cell populations. By choosing proper concentrations of these two dyes in conjunction with 363 nm excitation wavelength, it is possible to obtain a blue fluorescence signal from the Hoechst 33258 labeled micronucleii. A red fluorescence signal can be obtained from propidium iodide labeled PCEs. Whereas neither the dye combination, the dye concentration, the dye excitation wavelengths nor the appropriate buffer systems are known to practitioners in the art for an FCM based micronucleus assay, the following staining protocal is submitted as an embodiment of the present invention. A 10× stock solution of the dye should be prepared by dissolving 14.3 mg Hoechst 33258 in methanol (100 ml). A working solution is then prepared by adding 0.25 ml of the 10× stock solution to 9.75 ml of complete Sorensen's buffer. This working solution is then passed through an 0.2 micron acro-filter disk (Gelman Sciences) to remove any debris. The filtered working solution is further diluted by adding 25 μl to 967.5 μl of saline buffer (9 g NaCl and 0.445 g sodium bicarbonate per liter). […]

Where [3] appears, read: CP 100 μg/g body wt IP at 0 and 48 hours.
Setting [4] is: CP 100 μg/g body wt IP at 0 and 48 hours, listed as CP.

Where “and” joins values, the source holds several entries; their conditions need not be identical. Equal values may be shown once.

With `O=P1(N(CCCl)CCCl)NCCCO1` (centres unmarked) [cyclophosphamide], the “clastogen stimulated increase in MNs” value in data set [1] (cyclophosphamide at t=0 and t=48 hrs, primary or expanded window) is reported as “clastogen stimulated increase in MNs is clearly evident”. The “Sum96 (t = 96 hr)” value in data set [1] (cyclophosphamide, primary window plus sequentially added secondary windows 2-8) is 1480 MN events and 1563 MN events and 1644 MN events and 1713 MN events and 1778 MN events and 1839 MN events and 1915 MN events. Moreover, in data set [2] (setting [3]), the “Mns (T = 96 hr)” value is 2954 MNs per 10^6 cells and the “Δ (T96 - T0)” value is listed as 1124 MNs per 10^6 cells. In addition, in data set [2] (setting [4]), the “Mns (T = 96 hr)” value is 2591 MNs per 10^6 cells and 2453 MNs per 10^6 cells and 2626 MNs per 10^6 cells and 2708 MNs per 10^6 cells and 2594 ± 106 MNs per 10^6 cells; the “Δ (T96 - T0)” value is 1099 MNs per 10^6 cells and 1039 MNs per 10^6 cells and 1074 MNs per 10^6 cells and 1282 MNs per 10^6 cells and 1124 ± 108 MNs per 10^6 cells. Further, in data set [2] (CP 100 μg/g body wt IP at 0 and 48 hours, t=96 hr mean minus t=0 mean), the “Difference Mn96 - Mn0 (difference of the means)” value worked out at 1123 MNs per 10^6 cells. The “MN formation” value in data set [2] (CP 100 μg/g body wt at 0 and 48 hours) is given as “large increase in MN formation”. For the same compound, the “Increase in MNs (MeanCP - MeanSaline), from mean Δ (T96 - T0)” value in data set [2] (first method: difference of mean individual Δ values, CP minus saline) is recorded as 1047 MNs per 10^6 cells. Moreover, the “Increase in MNs (MeanCP - MeanSaline), from Mn96 - Mn0 of means” value in data set [2] (second method: difference of means, CP minus saline) was 1047 MNs per 10^6 cells. In addition, the “Increase in MNs, means of the t=96 hr samples (dosed minus controls)” value in data set [2] (third method: t=0 values ignored, 1,000,000 cells) came out at 992 MN-cells.
